Test results as given in US12668599B2, “Heterobifunctional compounds and methods of treating disease” (Halda Therapeutics OpCo, Inc., priority 2023, dated 2026).

Key:
[1] = test system: T-Rex 293 cell line SC3 cells having increased expression of androgen receptor protein due to exposure to doxycycline; assay: Cellular growth inhibition, T-Rex 293 SC3 cells with doxycycline-induced androgen receptor (CellTiter-Glo 2.0, 72 hours); assay type: cell-based; conditions: for GI50: T-Rex 293 SC3 cells with 10 ng/ml doxycycline (increased androgen receptor expression), 72 hours, CellTiter-Glo 2.0; for Ratio of GI50's: GI50 of the top compound in the pair divided by GI50 of the lower compound, T-Rex 293 SC3 cells with doxycycline-induced androgen receptor
Protocol: (§1) Ability of the test compounds to inhibit proliferation of the foregoing cell types was evaluated according to the procedures set forth below.
(§2) The doxycycline-inducible androgen receptor protein expressing cell line was established using the following protocol: T-Rex 293 cells were purchased from Invitrogen (Cat #R71007) and transfected using Lipofectamine 2000 with the wild-type androgen receptor protein sequence cloned into the pcDNA4/TO vector. Transfected cells were selected using 400 μg/mL Zeocin (Invitrogen Cat #R25001). Following selection, single clones were raised and maintained in Dulbecco's Modified Eagle Medium (DMEM) supplemented with 10% w/w Tetracycline-free fetal bovine serum (FBS) and 250 μg/mL Zeocin. Clones were analyzed for expression of androgen receptor protein in the presence and absence of 10 ng/ml doxycycline (Sigma Cat #D9891), and a single doxycycline-inducible clone (hereinafter “SC3”) was selected for use in downstream assays.
(§3) The SC3 cells were seeded on poly-D-lysine coated, black clear-bottom 384-well plates at 2500/well, in 25 μL Phenol Red Free Dulbecco's Modified Eagle Medium (DMEM) supplemented with 10% w/w charcoal-dextran treated fetal bovine serum (FBS) and 1% w/w pen-strep, with or without 10 ng/ml doxycycline. Pen-Strep is a commercially available mixture of penicillin G and streptomycin, which is used in mammalian cell culture media to prevent bacterial contamination. Phenol Red Free Dulbecco's Modified Eagle Medium (DMEM) supplemented with 10% w/w charcoal-dextran treated fetal bovine serum (FBS) and 1% w/w pen-strep, with or without 10 ng/mL doxycycline is herein referred to as Treatment Medium. Following seeding of cells in the plates, the plates were spun at 300×g for 30 seconds, then equilibrated to room temperature for 30 minutes, and then deposited in a humidified tissue culture incubator maintained at 37° C. with 5% CO2.
(§4) At 24 hours after seeding of the cells, dilutions of test compound were prepared in DMSO and dissolved in Treatment Medium, to achieve a final DMSO concentration of 0.5% w/w, thereby providing the Test Compound Solution. A 25 μL aliquot of the Test Compound Solution was added to cells in the well plates. An equal volume of a solution containing DMSO and Treatment Medium was used as a negative control. Following treatment of cells with Test Compound Solution or said equal volume of a solution containing DMSO and Treatment Medium, the plates were spun at 300×g for 30 seconds, and then left in an incubator for 72 hours.
(§5) At the end of the treatment duration, cell viability was quantified with CellTiter-Glo 2.0 reagent (Promega Cat #G9243). For this purpose, plates were equilibrated to room temperature for 30 minutes, and then 25 μL of CellTiter-Glo 2.0 reagent was added to cells in the plate wells. Plates were then agitated on a shaker for two minutes at 500 rpm and subsequently incubated at room temperature for 10 minutes. Following incubation, the plates were spun at 3000×g for 30 seconds, then sealed with an optical adhesive cover, and luminescence readings were measured with an En Vision Plate Reader.
(§6) Data was normalized using zero luminescence for baseline. A four-parameter non-linear regression curve fit was applied to dose-response data in GraphPad Prism data analysis software to determine the half-maximal growth inhibitory concentration (GI50) for each test compound.

[2] = test system: T-Rex 293 cell line SC3 cells lacking increased expression of androgen receptor protein; assay: Cellular growth inhibition, T-Rex 293 SC3 cells without doxycycline (CellTiter-Glo 2.0, 72 hours); assay type: cell-based; conditions: T-Rex 293 SC3 cells not exposed to doxycycline (no increased androgen receptor expression)
Protocol: as §1, §2, §3, §4, §5, §6

VCaP cells = assay: Cellular growth inhibition assay for VCaP cells (CellTiter-Glo 2.0, 72 hours); assay type: cell-based, human; conditions: for GI50: CellTiter-Glo 2.0; for Ratio of GI50's: GI50 of the top compound in the pair divided by GI50 of the lower compound
Protocol: Exemplary compounds were tested for ability to inhibit the proliferation of VCaP cells. VCap cells are a commercially available human prostate cancer cell line.
VCaP cells were purchased from American Type Cell Culture (ATCC Cat #CRL2876) and then seeded on poly-D-lysine coated, black clear-bottom 384-well plates at 5000/well in 25 μL Dulbecco's Modified Eagle Medium (DMEM) supplemented with 10% w/w Fetal bovine serum (FBS) and 1% w/w Pen-Strep. Pen-Strep is a commercially available mixture of penicillin G and streptomycin, which is used in mammalian cell culture media to prevent bacterial contamination. Dulbecco's Modified Eagle Medium (DMEM) supplemented with 10% w/w fetal bovine serum (FBS) and 1% w/w Pen-Strep is herein referred to as Treatment Medium. Following seeding of cells in the plates, the plates were spun at 300×g for 30 seconds, then equilibrated to room temperature for 30 minutes, and then deposited in a humidified tissue culture incubator maintained at 37° C. with 5% CO2.
as §4, §5, §6

Structure (SMILES)	GI50 (VCaP cells; Homo sapiens, VCaP, 72 h)	Ratio of GI50's (VCaP cells)	GI50 [1]	GI50 ([2]; 72 h)	Ratio of GI50's [1]	further results
COc1cc(O[C@H]2CC[C@H](NC(=O)c3ccc(N4CC5(CC(C#Cc6ccc(C7=NC(Cc8ncco8)c8nnc(C)n8-c8sc(C)c(C)c87)cc6F)C5)C4)nn3)CC2)ccc1C#N (single isomer, unassigned) [Compound I-127]			< 500 nM			GI50 [2]: < 500 nM; GI50 (VCaP cells; 72 hours): < 500 nM
COc1cc(O[C@H]2CC[C@H](NC(=O)c3ccc(N4CCC5(CCN(c6ccc(C7=NC(Cc8ncco8)c8nnc(C)n8-c8sc(C)c(C)c87)cc6F)CC5)C4)nn3)CC2)ccc1C#N (single isomer, unassigned) [Compound I-134]			< 500 nM			GI50 [2]: > 3000 nM; GI50 (VCaP cells; 72 hours): > 3000 nM
COc1cc(O[C@H]2CC[C@H](NC(=O)c3ccc(N4CCC5(CCN(c6ccc(C7=NC(Cc8ncco8)c8nnc(C)n8-c8sc(C)c(C)c87)cc6F)CC5)C4)nn3)CC2)ccc1C#N (single isomer, unassigned) [Compound I-135]			< 500 nM			GI50 [2]: < 500 nM; GI50 (VCaP cells; 72 hours): < 500 nM
Cc1sc2c(c1C)C(c1ccc(CC3CC4(CCN(c5ncc(C(=O)N[C@H]6C(C)(C)[C@H](Oc7ccc(C#N)c(Cl)c7)C6(C)C)cn5)CC4)C3)cc1)=N[C@@H](Cc1ncco1)c1nnc(C)n1-2 [C, reference compound]		2.6			22.0	
COc1cc(O[C@H]2CC[C@H](NC(=O)c3ccc(N4CCCC5(CCN(c6ccc(C7=N[C@@H](C)c8nnc(C)n8-c8sc(C)c(C)c87)cc6)CC5)C4)nn3)CC2)ccc1C#N [Compound I-26]			< 500 nM	< 500 nM		
COc1cc(O[C@H]2CC[C@H](NC(=O)c3ccc(N4CCC5(CCCN(c6ccc(C7=N[C@@H](C)c8nnc(C)n8-c8sc(C)c(C)c87)cc6)C5)C4)nn3)CC2)ccc1C#N (stereo partly shown) [Compound I-98]				< 500 nM		
COc1cc(O[C@H]2CC[C@H](NC(=O)c3ccc(N4CCC5(CCN(c6ccc(C7=N[C@@H](C)c8nnc(C)n8-c8sc(C)c(C)c87)cc6)CC56CCC6)C4)nn3)CC2)ccc1C#N (stereo partly shown) [Compound I-132]				< 500 nM		
Cc1sc2c(c1C)C(c1ccc(C3CCC4(CC3)CCN(c3ncc(C(=O)N[C@H]5C(C)(C)[C@H](Oc6ccc(C#N)c(Cl)c6)C5(C)C)cn3)C4)cc1)=N[C@@H](Cc1ncco1)c1nnc(C)n1-2 [D, reference compound]		6.5			3.8	
Cc1sc2c(c1C)C(c1ccc(OC3CC4(CCN(c5ccc(C(=O)N[C@H]6CC[C@H](Oc7ccc(C#N)c(Cl)c7)CC6)nn5)CC4)C3)cc1)=N[C@@H](Cc1ncco1)c1nnc(C)n1-2 [E, reference compound]		4.4			4.7	
Cc1sc2c(c1C)C(c1ccc(CC3CC4(CCN(c5ccc(C(=O)N[C@H]6CC[C@H](Oc7ccc(C#N)c(Cl)c7)CC6)nn5)CC4)C3)cc1)=N[C@@H](Cc1ncco1)c1nnc(C)n1-2 [F, reference compound]		1.9			3.8	
Cc1sc2c(c1C)C(c1ccc(C#CC3CC4(C3)CN(c3ccc(C(=O)N[C@H]5CC[C@H](Oc6ccc(C#N)c(Cl)c6)CC5)nn3)C4)cc1)=N[C@@H](Cc1ncco1)c1nnc(C)n1-2 [G, reference compound]		1.5			1.7	
Cc1sc2c(c1C)C(c1ccc(N3CCC4(CC3)CCN(c3ccc(C(=O)N[C@H]5CC[C@H](Oc6ccc(C#N)c(Cl)c6)CC5)nn3)C4)cc1)=N[C@@H](C)c1nnc(C)n1-2 [H, reference compound]		1.8			8.4	
Cc1sc2c(c1C)C(c1ccc(C3CCC4(CC3)CCN(c3ccc(C(=O)N[C@H]5CC[C@H](Oc6ccc(C#N)c(Cl)c6)CC5)nn3)C4)cc1)=N[C@@H](Cc1ncco1)c1nnc(C)n1-2 (stereo partly shown) [J, reference compound]		3.0			3.2	
Cc1sc2c(c1C)C(c1ccc(C#CC3CC4(C3)CN(c3ccc(C(=O)N[C@H]5CC[C@H](Oc6ccc(C#N)c(Cl)c6)CC5)nn3)C4)cc1F)=NC(Cc1ncco1)c1nnc(C)n1-2 (stereo partly shown) [K, reference compound]		1.5			2.0	

Now from value to molecule, other results behind:

GI50 (VCaP cells; Homo sapiens, VCaP, 72 h)	Ratio of GI50's (VCaP cells)	Structure (SMILES)	GI50 [1]	GI50 ([2]; 72 h)	Ratio of GI50's [1]	further results
< 500 nM		COc1cc(O[C@H]2CC[C@H](NC(=O)c3ccc(N4CCC5(CCC(Oc6ccc(C7=N[C@@H](C)c8nnc(C)n8-c8sc(C)c(C)c87)cc6)C5)C4)nn3)CC2)ccc1C#N (single isomer, unassigned) [Compound I-49]	< 500 nM	< 500 nM		
< 500 nM		COc1cc(O[C@H]2CC[C@H](NC(=O)c3ccc(N4CCC5(CCC(c6ccc(C7=N[C@@H](C)c8nnc(C)n8-c8sc(C)c(C)c87)cc6F)CC5)C4)nn3)CC2)ccc1C#N (single isomer, unassigned) [Compound I-56]	< 500 nM	< 500 nM		
< 500 nM		COc1cc(O[C@H]2CC[C@H](NC(=O)c3ccc(N4CCC5(CCC(c6ccc(C7=N[C@@H](C)c8nnc(C)n8-c8sc(C)c(C)c87)c(F)c6)CC5)C4)nn3)CC2)ccc1C#N (single isomer, unassigned) [Compound I-58]	< 500 nM	< 500 nM		
500 to 1500 nM		COc1cc(O[C@H]2CC[C@H](NC(=O)c3ccc(N4CCC5(CCC(c6ccc(C7=N[C@@H](C)c8nnc(C)n8-c8sc(C)c(C)c87)c(Cl)c6)CC5)C4)nn3)CC2)ccc1C#N (single isomer, unassigned) [Compound I-64]	< 500 nM	< 500 nM		
< 500 nM		COc1cc(O[C@H]2CC[C@H](NC(=O)c3ccc(N4CCC5(CCC(c6ccc(C7=N[C@@H](C)c8nnc(C)n8-c8sc(C)c(C)c87)cc6OC)CC5)C4)nn3)CC2)ccc1C#N (single isomer, unassigned) [Compound I-66]	< 500 nM	< 500 nM		
< 500 nM		COc1cc(O[C@H]2CC[C@H](NC(=O)c3ccc(N4CC5(CC(C#Cc6ccc(C7=NC(Cc8ncco8)c8nnc(C)n8-c8sc(C)c(C)c87)cc6F)C5)C4)nn3)CC2)ccc1C#N (single isomer, unassigned) [Compound I-123]	< 500 nM			GI50 [2]: > 3000 nM
< 500 nM		COc1cc(O[C@H]2CC[C@H](NC(=O)c3ccc(N4CCCC5(CCN(c6ccc(C7=N[C@@H](C)c8nnc(C)n8-c8sc(C)c(C)c87)cc6)CC5)C4)nn3)CC2)ccc1C#N [Compound I-18]				
< 500 nM		COc1cc(O[C@H]2CC[C@H](NC(=O)c3ccc(N4CCC5(CCCN(c6ccc(C7=N[C@@H](C)c8nnc(C)n8-c8sc(C)c(C)c87)cc6)C5)C4)nn3)CC2)ccc1C#N (stereo partly drawn) [Compound I-82, N-((1r,4r)-4-(4-cyano-3-methoxyphenoxy)cyclohexyl)-6-(7-(4-((S)-2,3,6,9-tetramethyl-6H-thieno[3,2-f][1,2,4]triazolo[4,3-a][1,4]diazepin-4-yl)phenyl)-2,7-diazaspiro[4.5]decan-2-yl) pyridazine-3-carboxamide]	< 500 nM			
< 500 nM		COc1cc(O[C@H]2CC[C@H](NC(=O)c3ccc(N4CCC5(CCN(c6ccc(C7=N[C@@H](C)c8nnc(C)n8-c8sc(C)c(C)c87)cc6)CC56CCC6)C4)nn3)CC2)ccc1C#N (stereo partly shown) [Compound I-130]	< 500 nM			
